Patent publication US20230339991A1, “HYPOXIA-ACTIVATED DNA ALKYLATING AGENT AND MEDICAL USE THEREOF” (ASCENTAWITS PHARMACEUTICALS, LTD., priority 2020, published 2023)

What was measured:
NCI-H1944 = assay: Cytotoxicity, NSCLC cell line NCI-H1944; assay type: cell-based; conditions: Homo sapiens
Method: (§1) Compounds were exposed at various concentrations for 72 hours, followed by a wash step. Fresh medium was added for growth. The cell was stained to determine the cell survival rate and compared with controls treated with medium only.
(§2) In particular, exponentially grown cells were inoculated in 96-well plates at a density of 2×10^3 cells/100 μl/well and incubated for 24 hours at 37° C. and under the conditions of 5% CO2, 95% air and 100% relative humidity before addition of 99 μl of culture solution. The compounds were dissolved in 100% DMSO at 200 times of the desired final test concentration. When the drug was added, an aliquot of 1 μl of the compound at the specified concentration was added to microwells already containing 199 μl of medium to obtain the reported final drug concentration. After adding the drug, plates were incubated for an additional 72 hours at 37° C., 5% CO2, 95% air and 100% relative humidity. The cell assay plate was left to balance for 30 minutes at room temperature and 100 μL of medium was removed from per well. 100 μl CTG reagent (CelltiterGlo kit) was added into each well. The plate was placed on a fast shaker and shaked for 2 min, and kept in dark at room temperature for 30 min. The chemiluminescence signal value was read by Envision instrument. […]

NCI-H2228 = assay: Cytotoxicity, NSCLC cell line NCI-H2228; assay type: cell-based; conditions: Homo sapiens
Method: as §1, §2

NCIH1755 = assay: Cytotoxicity, NSCLC cell line NCIH1755; assay type: cell-based; conditions: Homo sapiens, NCI-H1755
Method: as §1, §2

CAL12T = assay: Cytotoxicity, NSCLC cell line CAL12T; assay type: cell-based; conditions: Homo sapiens, CAL-12T
Method: as §1, §2

NCIH2106 = assay: Cytotoxicity, NSCLC cell line NCIH2106; assay type: cell-based; conditions: Homo sapiens
Method: as §1, §2

NCI-H522 = assay: Cytotoxicity, NSCLC cell line NCI-H522; assay type: cell-based; conditions: Homo sapiens
Method: as §1, §2

NCI-H2110 = assay: Cytotoxicity, NSCLC cell line NCI-H2110; assay type: cell-based; conditions: Homo sapiens
Method: as §1, §2

NCI-H1792 = assay: Cytotoxicity, NSCLC cell line NCI-H1792; assay type: cell-based; conditions: Homo sapiens
Method: as §1, §2

AsPC-1 = assay: Cytotoxicity, pancreatic cancer PA cells AsPC-1; assay type: cell-based; conditions: Homo sapiens, ASPC1
Method: as §1, §2

KP-2 = assay: Cytotoxicity, pancreatic cancer PA cells KP-2; assay type: cell-based; conditions: Homo sapiens
Method: as §1, §2

CFPAC1 = assay: Cytotoxicity, pancreatic cancer PA cells CFPAC1; assay type: cell-based; conditions: Homo sapiens, CFPAC-1
Method: as §1, §2

KP-3 = assay: Cytotoxicity, pancreatic cancer PA cells KP-3; assay type: cell-based; conditions: Homo sapiens
Method: as §1, §2

Capan-1 = assay: Cytotoxicity, pancreatic cancer PA cells Capan-1; assay type: cell-based; conditions: Homo sapiens
Method: as §1, §2

Panc 02.03 = assay: Cytotoxicity, pancreatic cancer PA cells Panc 02.03; assay type: cell-based; conditions: Homo sapiens
Method: as §1, §2

MIA PaCa-2 = assay: Cytotoxicity, pancreatic cancer PA cells MIA PaCa-2; assay type: cell-based; conditions: Homo sapiens
Method: as §1, §2

Panc 10.05 = assay: Cytotoxicity, pancreatic cancer PA cells Panc 10.05; assay type: cell-based; conditions: Homo sapiens, Panc1005
Method: as §1, §2

KP-4 = assay: Cytotoxicity, pancreatic cancer PA cells KP-4; assay type: cell-based; conditions: Homo sapiens
Method: as §1, §2

[1] = test system: human lung cancer NCI-H460 subcutaneous xenograft; assay: Human lung cancer NCI-H460 subcutaneous xenograft model, compound A; assay type: in vivo, BALB/c nude mice
Method: BALB/c nude mice were subcutaneously inoculated with human lung cancer NCI-H460 cells to establish human lung cancer subcutaneous transplantation tumor model. […] The test drug compound A 40 mg/kg group was administered by tail vein injection once every three weeks for 2 times, and observed for one week after the second administration. The test drug compound A 20 mg/kg group was administered by intraperitoneal injection once a day for 5 days continuously, and observed for 24 days. […] The administration dosage of compound A was determined according to the MTD test.
The tumor volumes of mice from each group were measured at different days and the average values were taken.

H460 cancer cells = assay: Cytotoxicity on H460 cancer cells, 72 h exposure, CTG; assay type: cell-based; conditions: Homo sapiens, NCI-H460
Method: The quantification value IC50 for cytotoxicity of a human tumor cell line in vitro was used to compare the cancer cell proliferation inhibition of compounds
as §1
In particular, exponentially grown cells were inoculated in 96-well plates at a density of 2×10^3 cells/100 μl/well and incubated for 24 hours at 37° C. and under the conditions of 5% CO2, 95% air and 100% relative humidity before addition of 99 μl of culture solution. The compounds were dissolved in 100% DMSO at 200 times of the desired final test concentration. When the drug was added, an aliquot of 1 μl of the compound at the specified concentration was added to microwells already containing 199 μl of medium to obtain the reported final drug concentration. After adding the drug, plates were incubated for an additional 72 hours at 37° C., 5% CO2, 95% air and 100% relative humidity. The cell assay plate was left to balance for 30 minutes at room temperature and 100 μL of medium was removed from per well. 100 μl CTG reagent (CelltiterGlo kit) was added into each well. […] The chemiluminescence signal value was read by Envision instrument.

[2] = test system: murine intestinal cancer CT26 subcutaneous model; assay: Murine intestinal cancer CT26 subcutaneous model; assay type: in vivo, BALB/c mice; conditions: 30 mg/kg, tail vein, twice a week
Method: BALB/c mice were subcutaneously inoculated with murine intestinal cancer CT26 cells to establish a murine intestinal cancer subcutaneous transplantation model. […] Anti-mouse PD-1 Ab 10 mg/kg in the single treatment group and in the combination treatment group with compound C 30 mg/kg was administered by intraperitoneal injection twice a week.

[3] = test system: HuPrime pancreatic cancer PA3546 subcutaneous xenograft PDX tumor; assay: PA3546 human pancreatic cancer subcutaneous PDX model; conditions: for relative tumor inhibition rate TGI (%): Day 25
Method: BALB/c nude mice were subcutaneously inoculated with HuPrime® model PA3546 tumor blocks to establish human pancreatic cancer subcutaneous transplantation tumor model. […] Efficacy was evaluated according to the relative tumor inhibition rate TGI (%), and safety was evaluated according to the change in body weight and the death of animals.

ICR mice = assay: Maximal tolerance dose (MTD) test, compound B; assay type: in vivo; conditions: 40 mg/kg group; i.v. QD×5
Method: 18 ICR mice, 9 females/9 males, were randomly divided into compound B 10 mg/kg group, 20 mg/kg group and 40 mg/kg group according to gender and body weight, with 3 females/3 males in each group. […] It was administered once a day for 5 days, and recovered for 2 weeks after the last administration. The animals were closely observed for 2 h after administration on the administration day and once a day in the morning and once in the afternoon on the non-administration day. Body weight and dietary intake were measured twice a week during the test period. Dead animals and all surviving animals after 14 days from the last administration were subjected to autopsy. The autopsy was performed on the pathological organs, and histopathological examination of the pathological organs was performed.

`O=[N+]([O-])c1ccc(C(OP(=O)(N2CC2)N2CC2)C(F)(F)F)c2ccccc12` (racemic) [Compound A] showed an IC50 (NCI-H1944) of 0.538 µM, an IC50 (NCI-H2228) of 0.264 µM and an IC50 (NCIH1755) of 6.46 µM. The IC50 (CAL12T) was 30.5 µM, the IC50 (NCIH2106) was 14.8 µM and the IC50 (NCI-H522) was 19.2 µM. For the same compound, the IC50 (NCI-H2110) was 0.382 µM, the IC50 (NCI-H1792) was 4.79 µM and the IC50 (AsPC-1) was 12.6 µM. The IC50 (KP-2) was 29.7 µM, the IC50 (CFPAC1) was 2.86 µM and the IC50 (KP-3) was 26.2 µM. It also gave an IC50 (Capan-1) of 5.97 µM, an IC50 (Panc 02.03) of 45.7 µM and an IC50 (MIA PaCa-2) of 6.9 µM. For the same compound, the IC50 (Panc 10.05) was 27.7 µM, the IC50 (KP-4) was 6.1 µM and the “relative tumor inhibition rate TGI (%)” value ([1]; 40 mg/kg, Q3W×2, IV, Day31) was 66.87%. For the same compound, the tumor volume ([1]; Test Group 7, 40 mg/kg IV, day 10) was 184.06 mm^3, the tumor volume ([1]; Test Group 7, 40 mg/kg IV, day 14) was 153.75 mm^3 and the tumor volume ([1]; Test Group 7, 40 mg/kg IV, day 17) was 159.72 mm^3. The tumor volume ([1]; Test Group 7, 40 mg/kg IV, day 21) was 218.13 mm^3, the tumor volume ([1]; Test Group 7, 40 mg/kg IV, day 24) was 291.07 mm^3 and the tumor volume ([1]; Test Group 7, 40 mg/kg IV, day 28) was 520.17 mm^3. For the same compound, the tumor volume ([1]; Test Group 7, 40 mg/kg IV, day 31) was 580.70 mm^3, the tumor volume ([1]; Test Group 7, 40 mg/kg IV, day 35) was 447.32 mm^3 and the tumor volume ([1]; Test Group 7, 40 mg/kg, Q3W×2, IV, day 7) was 143.84 mm^3. For the same compound, the tumor volume ([1]; Test Group 8, 20 mg/kg IP, day 10) was 173.09 mm^3, the tumor volume ([1]; Test Group 8, 20 mg/kg IP, day 14) was 152.99 mm^3 and the tumor volume ([1]; Test Group 8, 20 mg/kg IP, day 17) was 130.06 mm^3. It also gave a tumor volume ([1]; Test Group 8, 20 mg/kg IP, day 21) of 129.66 mm^3, a tumor volume ([1]; Test Group 8, 20 mg/kg IP, day 24) of 164.63 mm^3 and a tumor volume ([1]; Test Group 8, 20 mg/kg IP, day 28) of 272.20 mm^3. The tumor volume ([1]; Test Group 8, 20 mg/kg IP, day 31) was 447.50 mm^3, the tumor volume ([1]; Test Group 8, 20 mg/kg IP, day 35) was 651.58 mm^3 and the tumor volume ([1]; Test Group 8, 20 mg/kg, QD×5×1 week, IP, day 7) was 144.63 mm^3.

For `O=[N+]([O-])c1ccc([C@@H](OP(=O)(N2CC2)N2CC2)C(F)(F)F)c2ccccc12` (single isomer, unassigned) [Compound C], the IC50 (H460 cancer cells) was 0.0769 µM, the median survival time [2] was 19 days and the “body weight loss / tolerability” value ([3]; 10 mg/kg (Group 3)) was “no significant body weight loss and were well tolerated”. For the same compound, the “relative tumor inhibition rate TGI (%)” value ([3]; 10 mg/kg tail vein QW×3) was 32.35%, the “body weight loss / death” value ([3]; 20 mg/kg (Group 4)) was “significant weight loss and even death of individual or part of mice” and the “relative tumor inhibition rate TGI (%)” value ([3]; 20 mg/kg tail vein QW×3) was 36.79%. The “body weight loss / death” value ([3]; 40 mg/kg (Group 5)) was “significant weight loss and even death of individual or part of mice” and the “relative tumor inhibition rate TGI (%)” value ([3]; 40 mg/kg tail vein QW×3) was 35.93%.

For `O=[N+]([O-])c1ccc([C@H](OP(=O)(N2CC2)N2CC2)C(F)(F)F)c2ccccc12` [Compound B], the animal deaths (ICR mice) was “Three of the six”.
